{"source": "patent US9839648B2", "about": "“Combined anti-acid-fast bacterial agent, screening method for anti-acid-fast bacterial agents, and activity inhibitor of WecA or ortholog thereof” (MICROBIAL CHEMISTRY RESEARCH FOUNDATION, priority 2013, dated 2017)", "key": {"[1]": {"tested_on": "B. subtilis 168 (parent strain)", "assay": "MIC by microbroth dilution method, parent strain"}, "[2]": {"tested_on": "B. subtilis CPZB-resistant strain", "assay": "MIC by microbroth dilution method, CPZB-resistant strain"}, "B. subtilis 168/pHYcatA": {"tested_on": "B. subtilis 168/pHYcatA", "assay": "MIC by microbroth dilution method, control strain with pHYcat"}, "[3]": {"tested_on": "B. subtilis 168/pHYcat-mraY", "assay": "MIC by microbroth dilution method, mraY highly expressing strain"}, "[4]": {"tested_on": "B. subtilis 168/pHYcat-tagO", "assay": "MIC by microbroth dilution method, tagO highly expressing strain"}, "[5]": {"tested_on": "Mycobacterium tuberculosis H37Rv", "assay": "MIC by agar dilution method (Mycobacteria)", "assay_type": "cell-based", "settings": "7H10 agar, 37° C., 2 to 14 days", "experimental": "The MIC for Mycobacteria was measured by an agar dilution method."}, "Mycobacterium bovis BCG": {"tested_on": "Mycobacterium bovis BCG", "assay": "microbe, parasite or virus in culture", "assay_type": "cell-based", "settings": "Mycobacterium tuberculosis variant bovis BCG"}, "Bacillus subtilis PCI219": {"tested_on": "Bacillus subtilis PCI219", "assay": "MIC by agar dilution method (other than Mycobacteria)", "assay_type": "cell-based", "settings": "Mueller-Hinton agar, 37° C., 18 hours"}, "Bacillus subtilis 168": {"tested_on": "Bacillus subtilis 168", "assay": "MIC by agar dilution method (other than Mycobacteria)", "assay_type": "cell-based", "settings": "Mueller-Hinton agar, 37° C., 18 hours"}, "[6]": {"tested_on": "Staphylococcus aureus FDA209P", "assay": "MIC by agar dilution method (other than Mycobacteria)", "assay_type": "cell-based"}, "[7]": {"tested_on": "Enterococcus faecalis JCM 5803", "assay": "MIC by agar dilution method (other than Mycobacteria)", "assay_type": "cell-based", "settings": "JCM5803, Mueller-Hinton agar, 37° C., 18 hours"}, "[8]": {"tested_on": "Streptococcus pneumoniae S-223", "assay": "MIC by agar dilution method (other than Mycobacteria)", "assay_type": "cell-based"}, "Escherichia coli K-12": {"tested_on": "Escherichia coli K-12", "assay": "MIC by agar dilution method (other than Mycobacteria)", "assay_type": "cell-based", "settings": "K12, Mueller-Hinton agar, 37° C., 18 hours"}, "B. subtilis 168 strain": {"tested_on": "B. subtilis 168 strain", "assay_type": "cell-based, Bacillus subtilis", "settings": "[14C(U)]glycerol, FIGS. 7A, 7C"}, "TagO": {"molecular_target": "T1, TagO (Bacillus subtilis, UniProt O34753)", "T1 construct": "using disruption liquids of bacterial cells of the 168/pHYcat-mraY strain and the 168/pHYcat-tagO highly expressing these enzymes; expressed in transfected cells; host or cells: Bacillus subtilis 168 carrying plasmid pHYcat-tagO; supernatant of sonicated cells", "assay": "Measurement of TagO activity with disruption liquid of 168/pHYcat-tagO cells", "assay_type": "biochemical", "settings": "compared with caprazamycin B, tunicamycin, vancomycin, levofloxacin; FIG. 9A", "experimental": "The activities of enzymes MraY and TagO were measured in the following manner using disruption liquids of bacterial cells of the 168/pHYcat-mraY strain and the 168/pHYcat-tagO highly expressing these enzymes and produced in Test Example 3-2.\nAs a control, tunicamycin, vancomycin and levofloxacin were tested similarly.\nThe bacterial cells were cultured in an LB medium until logarithmic growth phase (OD600=0.4) and then collected through centrifuging (5,000 rpm, 10 min), followed by washing twice with a TMS buffer (50 mM Tris-HCl (pH 7.5), 625 mM sucrose, 10 mM MgCl2, 5 mM 3-mercapto-1,2-propanediol, 1 mM PMSF).\nNext, the precipitate was re-suspended in a TMS buffer having a volume 1/40 the initial volume, and the bacterial cells were disrupted through probe sonication (where the following procedure was repeated 10 times on ice: disrupting them for 30 sec and leaving them stand still for 30 sec). […]\nThe TagO activity was measured by allowing 0.02 mL of the following reaction mixture to react at 30° C. for 1 hour.\nNext, the lower layer containing the reaction product was analyzed through thin-layer chromatography (TLC, using as a developing solvent chloroform:methanol:water:concentrated aqueous ammonia=65:35:4:4) and autoradiography, to thereby calculate the enzymatic activity of TagO as a rate with respect to that of the control. […]"}, "[9]": {"molecular_target": "WecA of Mycobacterium smegmatis (Mycolicibacterium smegmatis, UniProt A0R211)", "assay": "biochemical"}, "Staph. aureus MRSA No. 5": {"tested_on": "Staph. aureus MRSA No. 5", "assay": "MIC by agar dilution method (other than Mycobacteria)"}, "[10]": {"tested_on": "Ent. faecalis NCTC12203 (VRE)", "assay": "MIC by agar dilution method (other than Mycobacteria)", "settings": "Enterococcus faecalis, 18 h"}, "Str. pneumoniae CR-2": {"tested_on": "Str. pneumoniae CR-2", "assay": "MIC by agar dilution method (other than Mycobacteria)"}}, "data": [{"compound": "CN[C@H](CC(C)C)C(=O)N[C@H]1C(=O)N[C@@H](CC(N)=O)C(=O)N[C@H]2C(=O)N[C@H]3C(=O)N[C@H](C(=O)N[C@H](C(=O)O)c4cc(O)cc(O)c4-c4cc3ccc4O)[C@H](O)c3ccc(c(Cl)c3)Oc3cc2cc(c3O[C@@H]2O[C@H](CO)[C@@H](O)[C@H](O)[C@H]2O[C@H]2C[C@](C)(N)[C@H](O)[C@H](C)O2)Oc2ccc(cc2Cl)[C@H]1O", "note": "[vancomycin, reference compound]", "values": [{"measurement": "MIC", "setting": "[1]; Bacillus subtilis, 16 h", "value": 0.25, "unit": "µg/mL"}, {"measurement": "MIC", "setting": "[2]; Bacillus subtilis, 16 h", "value": 0.25, "unit": "µg/mL"}, {"measurement": "MIC", "setting": "B. subtilis 168/pHYcatA; Bacillus subtilis, 168/PHYCATA", "value": 0.5, "unit": "µg/mL"}, {"measurement": "MIC", "setting": "[3]; Bacillus subtilis", "value": 0.5, "unit": "µg/mL"}, {"measurement": "MIC", "setting": "[4]; Bacillus subtilis", "value": 1, "unit": "µg/mL"}]}, {"compound": "tunicamycin [reference compound]", "values": [{"measurement": "MIC", "setting": "[1]; B. subtilis 168 (parent strain), microbroth dilution, LB medium, 37° C., 16 hours", "value": 0.25, "unit": "µg/mL"}, {"measurement": "MIC", "setting": "[2]; B. subtilis CPZB-resistant strain, microbroth dilution, LB medium, 37° C., 16 hours", "value": 4, "unit": "µg/mL"}, {"measurement": "MIC", "setting": "B. subtilis 168/pHYcatA; B. subtilis 168/pHYcatA (control strain), microbroth dilution, LB medium", "value": 1, "unit": "µg/mL"}, {"measurement": "MIC", "setting": "[3]; B. subtilis 168/pHYcat-mraY (mraY highly expressing), microbroth dilution, LB medium", "value": 1, "unit": "µg/mL"}, {"measurement": "MIC", "setting": "[4]; B. subtilis 168/pHYcat-tagO (tagO highly expressing), microbroth dilution, LB medium", "value": 16, "unit": "µg/mL"}]}, {"compound": "CCCCc1ccc(NC(=O)C2=CCN(C)[C@@H]([C@H](O[C@@H]3O[C@H](CN)C(O)C3O)[C@H]3O[C@@H](n4ccc(=O)[nH]c4=O)C(O)C3O)C(=O)N2C)cc1", "note": "(stereo partly drawn) [CPZEN-45]", "values": [{"measurement": "MIC", "setting": "[5]", "value": 1.56, "unit": "µg/mL"}, {"measurement": "MIC", "setting": "Mycobacterium bovis BCG", "value": 2, "unit": "µg/mL"}, {"measurement": "MIC", "setting": "Bacillus subtilis PCI219", "value": 1.56, "unit": "µg/mL"}, {"measurement": "MIC", "setting": "Bacillus subtilis 168", "value": 4, "unit": "µg/mL"}, {"measurement": "MIC", "setting": "[6]; Staphylococcus aureus FDA209P, agar dilution, Mueller-Hinton agar, 37° C., 18 hours", "value": 12.5, "unit": "µg/mL"}, {"measurement": "antibacterial activity (in words)", "setting": "[6]; Staphylococcus aureus FDA209 strain, WecA or ortholog not essential for growth", "value": "no antibacterial activity"}, {"measurement": "MIC", "setting": "[7]", "value": 8, "unit": "µg/mL"}, {"measurement": "MIC", "setting": "[8]; S223, Streptococcus pneumoniae S-223, agar dilution, Mueller-Hinton agar, 37° C., 18 hours", "value": 16, "unit": "µg/mL"}, {"measurement": "antibacterial activity (in words)", "setting": "[8]; Streptococcus pneumoniae S-223 strain, has no WecA or ortholog", "value": "no antibacterial activity"}, {"measurement": "MIC", "setting": "Escherichia coli K-12", "value": "> 100", "unit": "µg/mL"}, {"measurement": "incorporation into bacterial cells of glycerol (synthesis of teichoic acid)", "setting": "B. subtilis 168 strain", "value": "inhibited"}, {"measurement": "enzymatic activity of TagO (inhibition)", "setting": "TagO", "value": "the most strongly"}, {"measurement": "IC50", "setting": "[9]", "value": 6.39, "unit": "nM"}, {"measurement": "MIC", "setting": "[1]; Bacillus subtilis, 16 h", "value": 4, "unit": "µg/mL"}, {"measurement": "antibacterial activity (in words)", "setting": "Staph. aureus MRSA No. 5; Staph. aureus MRSA No. 5 strain, WecA or ortholog not essential for growth", "value": "no antibacterial activity"}, {"measurement": "MIC", "setting": "Staph. aureus MRSA No. 5; Staphylococcus aureus, MRSA, 18 h", "value": 100, "unit": "µg/mL"}, {"measurement": "MIC", "setting": "[10]", "value": 8, "unit": "µg/mL"}, {"measurement": "antibacterial activity (in words)", "setting": "Str. pneumoniae CR-2; Str. pneumoniae CR-2 strain, has no WecA or ortholog", "value": "no antibacterial activity"}, {"measurement": "MIC", "setting": "Str. pneumoniae CR-2; Streptococcus pneumoniae, CR2, 18 h", "value": 128, "unit": "µg/mL"}, {"measurement": "MIC", "setting": "[2]; Bacillus subtilis, 16 h", "value": 4, "unit": "µg/mL"}, {"measurement": "MIC", "setting": "B. subtilis 168/pHYcatA; Bacillus subtilis, 168/PHYCATA", "value": 8, "unit": "µg/mL"}, {"measurement": "MIC", "setting": "[3]; Bacillus subtilis", "value": 8, "unit": "µg/mL"}, {"measurement": "MIC", "setting": "[4]; Bacillus subtilis", "value": 64, "unit": "µg/mL"}]}]}
